ChEMBL document CHEMBL1681651, “A broad spectrum anticancer nucleoside with selective toxicity against human colon cells in vitro” (2011)

Legend:
Type in all cases: functional
[1] = system: PC-3; assay: Growth inhibition of human PC3 cells after 48 hrs by […] growth inhibition assay; details: PC-3, 48 h, read-out: LC50 (the source's name)
[2] = system: SW-620; assay: Growth inhibition of human SW620 cells assessed as cell growth at 10 uM after 48 hrs by SRB assay; details: SW-620, 48 h, read-out: Activity
[3] = system: HCT-116; assay: Growth inhibition of human HCT116 cells assessed as cell growth at 100 uM after 48 hrs by SRB assay; details: HCT-116, 48 h, read-out: Activity
[4] = system: SNB-19; assay: Growth inhibition of human SNB19 cells assessed as cell growth at 1 uM after 48 hrs by SRB assay; details: SNB-19, 48 h, read-out: Activity
[5] = system: SK-MEL-28; assay: Growth inhibition of human SK-MEL-28 cells assessed as cell growth at 10 uM after 48 hrs by SRB assay; details: SK-MEL-28, 48 h, read-out: Activity
[6] = system: UACC-62; assay: Growth inhibition of human UACC62 cells assessed as cell growth at 10 uM after 48 hrs by SRB assay; details: UACC-62, 48 h, read-out: Activity
[7] = system: TK-10; assay: Growth inhibition of human TK10 cells assessed as cell growth at 1 uM after 48 hrs by SRB assay; details: TK-10, 48 h, read-out: Activity
[8] = system: U-251; assay: Growth inhibition of human U251 cells assessed as cell growth at 10 uM after 48 hrs by SRB assay; details: U-251, 48 h, read-out: Activity
[9] = system: COLO 205; assay: Growth inhibition of human COLO205 cells after 48 hrs by […] growth inhibition assay; details: COLO 205, 48 h
[10] = system: SNB-75; assay: Growth inhibition of human SNB75 cells assessed as cell growth at 10 uM after 48 hrs by SRB assay; details: SNB-75, 48 h, read-out: Activity
[11] = system: SF-539; assay: Growth inhibition of human SF539 cells after 48 hrs by […] growth inhibition assay; details: SF-539, 48 h
[12] = system: NCI-H226; assay: Growth inhibition of human NCI-H226 cells assessed as cell growth at 0.1 uM after 48 hrs by SRB assay; details: NCI-H226, 48 h, read-out: Activity
[13] = system: NCI/ADR-RES; assay: Growth inhibition of human NCI/ADR-RES cells after 48 hrs by SRB assay
[14] = system: SNB-75; assay: Growth inhibition of human SNB75 cells assessed as cell growth at 1 uM after 48 hrs by SRB assay; details: SNB-75, 48 h, read-out: Activity
[15] = system: SF-295; assay: Growth inhibition of human SF295 cells assessed as cell growth at 0.1 uM after 48 hrs by SRB assay; details: SF-295, 48 h, read-out: Activity
[16] = system: SK-MEL-28; assay: Growth inhibition of human SK-MEL-28 cells after 48 hrs by […] growth inhibition assay; details: SK-MEL-28, 48 h
[17] = system: NCI-H522; assay: Growth inhibition of human NCI-H522 cells assessed as cell growth at 10 uM after 48 hrs by SRB assay; details: NCI-H522, 48 h, read-out: Activity
[18] = system: HL-60(TB); assay: Growth inhibition of human HL-60(TB) cells assessed as cell growth at 10 uM after 48 hrs by SRB assay; details: HL-60, 48 h, read-out: Activity
[19] = system: TK-10; assay: Growth inhibition of human TK10 cells assessed as cell growth at 100 uM after 48 hrs by SRB assay; details: TK-10, 48 h, read-out: Activity
[20] = system: OVCAR-3; assay: Growth inhibition of human OVCAR3 cells assessed as cell growth at 1 uM after 48 hrs by SRB assay; details: OVCAR-3, 48 h, read-out: Activity
[21] = system: NCI-H460; assay: Growth inhibition of human NCI-H460 cells assessed as cell growth at 1 mM after 48 hrs by SRB assay; details: NCI-H460, 48 h, read-out: Activity
[22] = system: HCC 2998; assay: Growth inhibition of human HCC2998 cells assessed as cell growth at 10 uM after 48 hrs by SRB assay; details: HCC 2998, 48 h, read-out: Activity
[23] = system: SK-MEL-5; assay: Growth inhibition of human SK-MEL-5 cells assessed as cell growth at 0.1 uM after 48 hrs by SRB assay; details: SK-MEL-5, 48 h, read-out: Activity
[24] = system: OVCAR-3; assay: Growth inhibition of human OVCAR3 cells after 48 hrs by […] growth inhibition assay; details: OVCAR-3, 48 h
[25] = system: NCI/ADR-RES; assay: Growth inhibition of human NCI/ADR-RES cells assessed as cell growth at 1 uM after 48 hrs by SRB assay; details: read-out: Activity
[26] = system: A549; assay: Growth inhibition of human A549 cells assessed as cell growth at 0.1 uM after 48 hrs by SRB assay; details: A549, 48 h, read-out: Activity
[27] = system: SF-539; assay: Growth inhibition of human SF539 cells assessed as cell growth at 100 uM after 48 hrs by SRB assay; details: SF-539, 48 h, read-out: Activity
[28] = system: MDA-MB-468; assay: Growth inhibition of human MDA-MB-468 cells after 48 hrs by […] growth inhibition assay; details: MDA-MB-468, 48 h, read-out: LC50 (the source's name)
[29] = system: ACHN; assay: Growth inhibition of human ACHN cells assessed as cell growth at 100 uM after 48 hrs by SRB assay; details: read-out: Activity
[30] = system: LOX IMVI; assay: Growth inhibition of human LOXIMVI cells assessed as cell growth at 0.1 uM after 48 hrs by SRB assay; details: read-out: Activity
[31] = system: ACHN; assay: Growth inhibition of human ACHN cells assessed as cell growth at 1 mM after 48 hrs by SRB assay; details: read-out: Activity
[32] = system: CAKI-1; assay: Growth inhibition of human Caki1 cells assessed as cell growth at 0.1 uM after 48 hrs by SRB assay; details: CAKI-1, 48 h, read-out: Activity
[33] = read-out: LC50 (the source's name)
[34] = read-out: pLC50 (the source's name) (converted)

Structure (SMILES): CNC(=O)NC[C@H]1O[C@@H](n2cnc3c(NC(=O)Nc4ccccc4)ncnc32)[C@H](O[Si](C)(C)C(C)(C)C)[C@@H]1CC(=O)N(C)OC
- CC50 [1]: > 100 µM
- growth at 10 µM [2]: 93%
- growth at 100 µM [3]: 26%
- growth at 1 µM [4]: 93%
- growth at 10 µM [5]: 101%
- growth at 10 µM [6]: 96%
- growth at 1 µM [7]: 106%
- growth at 10 µM [8]: 90%
- GI50 ([9]; read-out: GI50): 12.3 µM
- CC50 [9, 33]: > 100 µM
- TGI ([9]; read-out: TGI): > 100 µM
- GI50 ([9]; read-out: pGI50 (converted)): 12.3 µM
- CC50 [9, 34]: > 100 µM
- TGI ([9]; read-out: pTGI (converted)): > 100 µM
- growth at 10 µM [10]: 84%
- GI50 ([11]; read-out: GI50): 22.3 µM
- CC50 [11, 33]: > 100 µM
- TGI ([11]; read-out: TGI): > 100 µM
- GI50 ([11]; read-out: pGI50 (converted)): 22.4 µM
- CC50 [11, 34]: > 100 µM
- TGI ([11]; read-out: pTGI (converted)): > 100 µM
- growth at 0.1 µM [12]: 103%
- GI50 ([13]; read-out: GI50): > 100 µM
- CC50 [13, 33]: > 100 µM
- TGI ([13]; read-out: TGI): > 100 µM
- GI50 ([13]; read-out: pGI50 (converted)): > 100 µM
- CC50 [13, 34]: > 100 µM
- TGI ([13]; read-out: pTGI (converted)): > 100 µM
- growth at 1 µM [14]: 95%
- growth at 0.1 µM [15]: 93%
- GI50 ([16]; read-out: GI50): 7.77 µM
- CC50 [16, 33]: > 100 µM
- TGI ([16]; read-out: TGI): > 100 µM
- GI50 ([16]; read-out: pGI50 (converted)): 7.76 µM
- CC50 [16, 34]: > 100 µM
- TGI ([16]; read-out: pTGI (converted)): > 100 µM
- growth at 10 µM [17]: 84%
- growth at 10 µM [18]: 84%
- growth at 100 µM [19]: 65%
- growth at 1 µM [20]: 107%
- growth at 1000 µM [21]: 25%
- growth at 10 µM [22]: 100%
- growth at 0.1 µM [23]: 104%
- GI50 ([24]; read-out: GI50): 7.11 µM
- CC50 [24, 33]: > 100 µM
- TGI ([24]; read-out: TGI): > 100 µM
- GI50 ([24]; read-out: pGI50 (converted)): 7.08 µM
- CC50 [24, 34]: > 100 µM
- TGI ([24]; read-out: pTGI (converted)): > 100 µM
- growth at 1 µM [25]: 109%
- growth at 0.1 µM [26]: 97%
- growth at 100 µM [27]: 65%
- CC50 [28]: > 100 µM
- growth at 100 µM [29]: 55%
- growth at 0.1 µM [30]: 97%
- growth at 1000 µM [31]: 23%
- growth at 0.1 µM [32]: 85%
